# Assay results reported in patent US11021444B2, “Antiviral compounds” (priority 2013, dated 2021).
# Where two headings read alike, the source gives them in different places.
# How the values were obtained:
# [1] = Cytotoxicity Determination (CCK-8, without addition of virus); format: cell-based; conditions: human, 50% cytotoxicity concentration (CC50)
# Method in brief: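 Cytotoxicity was measured by CCK-8 after 3-4 hours at 37 °C, following 5 days of uninfected exposure at 37 °C and 5% CO2. Compounds ran as duplicate 7-point 1/2 dilutions starting at 100 μM, with 1% final DMSO. HEp-2 cells had been plated at 1,500/well the day before.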
# recombinant RSV complex = recombinant RSV complex (Human respiratory syncytial virus A, UniProt P28887); test: RSV Polymerase Inhibition Assay; format: biochemical
# recombinant RSV complex, sequence (P28887 whole entry): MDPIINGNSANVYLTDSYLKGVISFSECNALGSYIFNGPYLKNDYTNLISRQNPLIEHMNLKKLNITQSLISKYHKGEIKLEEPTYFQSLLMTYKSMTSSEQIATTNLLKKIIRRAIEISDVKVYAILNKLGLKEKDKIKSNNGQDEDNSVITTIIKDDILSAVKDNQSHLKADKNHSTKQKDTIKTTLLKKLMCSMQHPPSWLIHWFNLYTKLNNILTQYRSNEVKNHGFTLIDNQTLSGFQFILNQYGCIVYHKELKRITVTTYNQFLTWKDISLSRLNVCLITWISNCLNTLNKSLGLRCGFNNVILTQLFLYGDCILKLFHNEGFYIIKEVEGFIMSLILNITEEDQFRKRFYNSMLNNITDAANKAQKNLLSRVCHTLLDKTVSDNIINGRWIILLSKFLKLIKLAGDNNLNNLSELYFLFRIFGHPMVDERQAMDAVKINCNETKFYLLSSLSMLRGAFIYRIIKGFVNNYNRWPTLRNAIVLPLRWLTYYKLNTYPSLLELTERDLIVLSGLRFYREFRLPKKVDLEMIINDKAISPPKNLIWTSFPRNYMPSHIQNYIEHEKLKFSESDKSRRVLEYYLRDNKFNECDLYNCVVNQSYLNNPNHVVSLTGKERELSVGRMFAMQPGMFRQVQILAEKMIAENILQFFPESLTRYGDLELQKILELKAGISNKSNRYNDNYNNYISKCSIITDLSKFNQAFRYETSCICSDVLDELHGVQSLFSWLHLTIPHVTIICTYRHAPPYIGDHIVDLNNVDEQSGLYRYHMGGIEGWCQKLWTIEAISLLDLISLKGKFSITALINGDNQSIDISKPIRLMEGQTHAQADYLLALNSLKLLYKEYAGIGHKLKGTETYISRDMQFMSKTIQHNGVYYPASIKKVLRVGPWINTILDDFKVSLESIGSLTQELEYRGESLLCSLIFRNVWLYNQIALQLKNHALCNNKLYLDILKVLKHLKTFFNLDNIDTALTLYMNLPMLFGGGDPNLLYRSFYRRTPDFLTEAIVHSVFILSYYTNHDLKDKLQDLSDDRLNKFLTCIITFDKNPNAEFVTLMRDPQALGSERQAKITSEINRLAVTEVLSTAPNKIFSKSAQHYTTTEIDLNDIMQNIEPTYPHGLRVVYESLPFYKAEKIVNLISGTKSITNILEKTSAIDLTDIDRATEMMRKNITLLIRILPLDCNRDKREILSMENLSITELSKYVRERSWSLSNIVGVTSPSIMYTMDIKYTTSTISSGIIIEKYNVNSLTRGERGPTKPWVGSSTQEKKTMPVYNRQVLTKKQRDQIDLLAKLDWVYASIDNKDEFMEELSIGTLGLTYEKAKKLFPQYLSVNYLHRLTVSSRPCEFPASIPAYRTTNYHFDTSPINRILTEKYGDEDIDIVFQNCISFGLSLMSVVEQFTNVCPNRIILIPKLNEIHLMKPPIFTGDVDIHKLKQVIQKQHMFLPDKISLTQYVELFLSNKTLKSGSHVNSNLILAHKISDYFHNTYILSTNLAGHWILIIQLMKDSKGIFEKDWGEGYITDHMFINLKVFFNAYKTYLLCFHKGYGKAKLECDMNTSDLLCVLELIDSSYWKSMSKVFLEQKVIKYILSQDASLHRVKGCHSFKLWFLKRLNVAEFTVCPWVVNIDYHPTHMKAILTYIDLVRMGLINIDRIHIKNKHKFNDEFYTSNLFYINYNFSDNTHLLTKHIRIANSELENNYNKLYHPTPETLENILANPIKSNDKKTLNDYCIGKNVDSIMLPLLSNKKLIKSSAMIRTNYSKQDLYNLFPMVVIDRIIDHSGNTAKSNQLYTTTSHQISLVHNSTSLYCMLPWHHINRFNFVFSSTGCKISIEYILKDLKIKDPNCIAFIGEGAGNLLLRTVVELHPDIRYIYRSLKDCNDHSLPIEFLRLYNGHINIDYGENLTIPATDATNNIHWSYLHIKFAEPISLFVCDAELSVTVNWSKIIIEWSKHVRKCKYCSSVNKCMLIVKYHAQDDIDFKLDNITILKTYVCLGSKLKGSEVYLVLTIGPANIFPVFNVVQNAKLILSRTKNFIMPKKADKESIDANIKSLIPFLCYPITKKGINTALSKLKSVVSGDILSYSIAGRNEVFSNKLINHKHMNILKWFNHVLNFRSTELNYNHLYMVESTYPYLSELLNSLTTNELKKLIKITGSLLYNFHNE
# recombinant RSV complex, sequence (P03421 whole entry, further chain): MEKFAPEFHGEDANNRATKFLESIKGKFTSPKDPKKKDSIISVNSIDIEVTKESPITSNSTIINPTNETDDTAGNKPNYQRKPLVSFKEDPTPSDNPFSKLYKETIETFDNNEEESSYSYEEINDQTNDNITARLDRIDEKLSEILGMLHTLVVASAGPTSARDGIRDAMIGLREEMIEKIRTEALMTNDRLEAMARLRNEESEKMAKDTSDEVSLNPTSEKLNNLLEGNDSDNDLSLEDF
# Method in brief: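 Inhibition measured as reduced incorporation of radiolabel into RNA products, detected by scintillation counting. Reactions: recombinant RSV complex (10 nM), RNA oligonucleotides, Tris-HCl pH 7.5, 6 mM MgCl2, inhibitor titration, 2 h at 30 °C, EDTA stop.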
# [2] = tested on: Respiratory Syncytial Virus (RSV) long strain; test: microbe, parasite or virus in culture; format: cell-based; conditions: human respiratory syncytial virus, Tables A and B list compounds by EC50 band
# Method in brief: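 CPE-reduction format: viability measured colorimetrically with CCK-8 (450 nm, 630 nm reference) after 3-4 h, following 5-day infection at 37 °C, 5% CO2. Cells were HEp-2; inoculum 100 TCID50/well; duplicate 9-point 1/3 series starting at 100 μM or 1 μM.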
# RSV replicon = test: microbe, parasite or virus in culture; format: cell-based; conditions: human respiratory syncytial virus, read-out: EC50, the concentration of the drug required for reducing RSV replicon RNA by 50%
# Description: The Renilla Luciferase Assay System (Promega, Cat. #E2820) was used to measure anti-RSV replicon activity. […] Luminescence was recorded using a Perkin Elmer multilabel counter Victor3V. EC50, the concentration of the drug required for reducing RSV replicon RNA by 50% in relation to the untreated cell control value, was calculated from the plot of percentage reductions of the optical density (OD) value against the drug concentrations using the Microsoft Excel forecast function.
# [3] = HEp-2, 120 h, read-out: 50% effective concentration (EC50), HEp-2 cells infected with RSV long strain, 5 days, CCK-8 readout
# [4] = 120 h, read-out: 50% effective concentration (EC50), HEp-2 cells infected with RSV long strain, 5 days, CCK-8 readout
smiles,measurement,setting,value
COc1cc(C(=O)NCC(O)(c2cc(C(C)(C)NC(C)=N)cc(-c3ccc(F)c(Cl)c3)n2)C(F)(F)F)ccc1OC1CC1 (stereo not shown) [Compound 579],CC50 at 5 days,[1],10000 to 100000 nM
same,IC50,recombinant RSV complex,< 1000 nM
same,EC50,[2]; [3],< 1000 nM
same,EC50,RSV replicon,< 1000 nM
COc1cc(C(=O)NCC(O)(c2ccc(OC)c(-c3ccc(F)c(Cl)c3)n2)C2CC2)ccc1OC(C)(F)F (stereo not shown) [Compound 437],CC50 at 5 days,[1],10000 to 100000 nM
same,IC50,recombinant RSV complex,< 1000 nM
same,EC50,[2]; [3],1000 to 50000 nM
same,EC50,RSV replicon,< 1000 nM
CC(C)(N)c1cc(-c2ccc(F)cc2)nc(C(O)(CNC(=O)c2ccc(OC3CC3)c(CO)c2)C(F)(F)F)c1 (stereo not shown) [Compound 644],CC50 at 5 days,[1],10000 to 100000 nM
same,IC50,recombinant RSV complex,< 1000 nM
same,EC50,[2]; [3],< 1000 nM
same,EC50,RSV replicon,< 1000 nM
COc1cc(C(=O)NCC(O)(c2cc(C(C)(C)N)cc(-c3ccc(F)c(Cl)c3)n2)C(F)(F)F)ccc1OCCOC(=O)C(C)C (stereo not shown) [Compound 490],CC50 at 5 days,[1],10000 to 100000 nM
same,IC50,recombinant RSV complex,< 10000 nM
same,EC50,[2]; [3],< 1000 nM
same,EC50,RSV replicon,< 1000 nM
COc1cc(C(=O)NCC(O)(c2ccc(OC)c(-c3ccc(F)c(Cl)c3)n2)C2CC2)ccc1Cn1ccnc1 (stereo not shown) [Compound 438],CC50 at 5 days,[1],10000 to 100000 nM
same,IC50,recombinant RSV complex,< 10000 nM
same,EC50,[2]; [3],1000 to 50000 nM
same,EC50,RSV replicon,1000 to 50000 nM
COc1cc(C(=O)NCC(=O)c2cc3c(c(-c4ccc(F)c(Cl)c4)n2)OCC3(C)C)ccc1OCCO [Compound 140],CC50 at 5 days,[1],10000 to 100000 nM
same,IC50,recombinant RSV complex,< 1000 nM
same,EC50,[2]; [4],< 1000 nM
same,EC50,RSV replicon,< 1000 nM
COc1cc(C(=O)NCC(O)(c2cc(C(C)(C)N)cc(-c3ccnc(Cl)c3)n2)C(F)(F)F)ccc1OC1CC1 (stereo not shown) [Compound 558],CC50 at 5 days,[1],10000 to 100000 nM
same,IC50,recombinant RSV complex,< 1000 nM
same,EC50,[2]; [3],< 1000 nM
same,EC50,RSV replicon,< 1000 nM
COc1cc(C(=O)NCC(O)(c2cc3c(c(-c4ccc(F)cc4)n2)OCC3(C)N)C(F)(F)F)ccc1OC[C@@H](C)O (stereo partly shown) [Compound 556],CC50 at 5 days,[1],10000 to 100000 nM
same,IC50,recombinant RSV complex,< 1000 nM
same,EC50,[2]; [3],< 1000 nM
same,EC50,RSV replicon,< 1000 nM
CCNC(C)(C)c1cc(-c2ccc(F)c(Cl)c2)nc(C(O)(CNC(=O)c2ccc(OC[C@H](C)O)c(OC)c2)C(F)(F)F)c1 (stereo partly shown) [Compound 391],CC50 at 5 days,[1],10000 to 100000 nM
same,IC50,recombinant RSV complex,< 1000 nM
same,EC50,[2]; [3],< 1000 nM
same,EC50,RSV replicon,< 1000 nM
COc1cc(C(=O)NC[C@](O)(c2cc(C(C)(C)N)cc(-c3ccc(F)cc3)n2)C(F)(F)F)ccc1OC[C@@H](C)O [Compound 546],CC50 at 5 days,[1],10000 to 100000 nM
same,IC50,recombinant RSV complex,< 1000 nM
same,EC50,[2]; [3],< 1000 nM
same,EC50,RSV replicon,< 1000 nM
COc1cc(C(=O)NCC(O)(c2ccc(OC)c(-c3ccc(F)c(Cl)c3)n2)C2CC2)ccc1OCCF (stereo not shown) [Compound 123],CC50 at 5 days,[1],> 100000 nM
same,IC50,recombinant RSV complex,< 1000 nM
same,EC50,[2]; [3],< 1000 nM
same,EC50,RSV replicon,< 1000 nM
COc1cc(C(=O)NCC(O)(c2cc(C(C)(C)N)cc(-c3ccc(F)c(Cl)c3)n2)C(F)(F)F)ccc1OCCO (stereo not shown) [Compound 489],CC50 at 5 days,[1],10000 to 100000 nM
same,IC50,recombinant RSV complex,< 1000 nM
same,EC50,[2]; [3],< 1000 nM
same,EC50,RSV replicon,< 1000 nM
COc1cc(C(=O)NC[C@](O)(c2cc(C(C)(C)N)cc(-c3ccc(F)cc3)n2)C(F)(F)F)ccc1OC1CC1 [Compound 496],CC50 at 5 days,[1],10000 to 100000 nM
same,IC50,recombinant RSV complex,< 1000 nM
same,EC50,[2]; [3],< 1000 nM
same,EC50,RSV replicon,< 1000 nM
COc1cc(C(=O)NC[C@](O)(c2cc(C(C)(C)N)cc(-c3ccc(F)cc3)n2)C(F)(F)F)ccc1OCCO [Compound 554],CC50 at 5 days,[1],10000 to 100000 nM
same,IC50,recombinant RSV complex,< 1000 nM
same,EC50,[2]; [3],< 1000 nM
same,EC50,RSV replicon,< 1000 nM
COc1ccc(C(O)(CNC(=O)c2ccc(OC[C@@H](C)O)c(Cl)c2)C(F)(F)F)nc1-c1ccc(F)c(Cl)c1 (stereo partly shown) [Compound 232],CC50 at 5 days,[1],10000 to 100000 nM
same,IC50,recombinant RSV complex,< 1000 nM
same,EC50,[2]; [3],< 1000 nM
same,EC50,RSV replicon,< 1000 nM
COc1cc(C(=O)NCC(O)(c2ccc(OC)c(-c3ccc(F)c(Cl)c3)n2)C2CC2)ccc1OCc1ncn[nH]1 (stereo not shown) [Compound 360],CC50 at 5 days,[1],10000 to 100000 nM
same,IC50,recombinant RSV complex,< 1000 nM
same,EC50,[2]; [4],< 1000 nM
same,EC50,RSV replicon,< 1000 nM
COc1cc(C(=O)NCC(O)(c2ccc(OC)c(-c3ccc(F)c(Cl)c3)n2)C(F)F)ccc1OC[C@@H](C)O (stereo partly shown) [Compound 444],CC50 at 5 days,[1],10000 to 100000 nM
same,IC50,recombinant RSV complex,< 1000 nM
same,EC50,[2]; [3],< 1000 nM
same,EC50,RSV replicon,< 1000 nM
COc1cc(C(=O)NCC(O)(c2ccc(CN)c(-c3ccc(F)cc3)n2)C(F)(F)F)ccc1OC1CC1 (stereo not shown) [Compound 514],CC50 at 5 days,[1],10000 to 100000 nM
same,IC50,recombinant RSV complex,< 1000 nM
same,EC50,[2]; [3],< 1000 nM
same,EC50,RSV replicon,< 1000 nM
COc1cc(C(=O)NCC(O)(c2cc(C(C)(C)NC(C)=O)cc(-c3ccc(F)cc3)n2)C(F)(F)F)ccc1OCCO (stereo not shown) [Compound 611],CC50 at 5 days,[1],> 100000 nM
same,IC50,recombinant RSV complex,< 1000 nM
same,EC50,[2]; [3],< 1000 nM
same,EC50,RSV replicon,< 1000 nM
COc1cc(C(=O)NCC(O)(c2cc(C3(C)CCNC3)cc(-c3ccc(F)cc3)n2)C(F)(F)F)ccc1OC1CC1 (stereo not shown) [Compound 507],CC50 at 5 days,[1],10000 to 100000 nM
same,IC50,recombinant RSV complex,< 1000 nM
same,EC50,[2]; [3],< 1000 nM
same,EC50,RSV replicon,< 1000 nM
COc1cc(C(=O)NCC(O)(c2cc(C(C)(C)N)cc(-c3ccc(F)c(Cl)c3)n2)C(F)(F)F)cc2cccnc12 (stereo not shown) [Compound 321],CC50 at 5 days,[1],10000 to 100000 nM
same,IC50,recombinant RSV complex,< 1000 nM
same,EC50,[2]; [3],< 1000 nM
same,EC50,RSV replicon,< 1000 nM
COc1cc(C(=O)NCC(F)(c2ccc(OC)c(-c3ccc(F)c(Cl)c3)n2)C(F)(F)F)ccc1OCC(N)=O (stereo not shown) [Compound 343],CC50 at 5 days,[1],10000 to 100000 nM
same,IC50,recombinant RSV complex,< 1000 nM
same,EC50,[2]; [3],< 1000 nM
same,EC50,RSV replicon,< 1000 nM
COc1cc(C(=O)NCC(O)(c2ccc(OC)c(-c3ccc(F)c(Cl)c3)n2)C2CC2)ccc1Cn1cncn1 (stereo not shown) [Compound 434],CC50 at 5 days,[1],10000 to 100000 nM
same,IC50,recombinant RSV complex,< 1000 nM
same,EC50,[2]; [3],< 1000 nM
same,EC50,RSV replicon,< 1000 nM
COC(=O)CNC(C)(C)c1cc(-c2ccc(F)c(Cl)c2)nc(C(O)(CNC(=O)c2ccc(OC3CC3)c(OC)c2)C(F)(F)F)c1 (stereo not shown) [Compound 500],CC50 at 5 days,[1],10000 to 100000 nM
same,IC50,recombinant RSV complex,< 1000 nM
same,EC50,[2]; [4],< 1000 nM
same,EC50,RSV replicon,< 1000 nM
COc1cc(C(=O)NCC(O)(c2cc3c(c(-c4ccc(F)c(Cl)c4)n2)OCC3)C2CC2)ccc1OCCO (stereo not shown) [Compound 310],CC50 at 5 days,[1],10000 to 100000 nM
same,IC50,recombinant RSV complex,< 1000 nM
same,EC50,[2]; [4],< 1000 nM
same,EC50,RSV replicon,< 1000 nM
COc1ccc(C(=O)NCC(O)(c2ccc(OC)c(-c3ccc(F)c(Cl)c3)n2)C2CC2)cc1OC (stereo not shown) [Compound 359],CC50 at 5 days,[1],10000 to 100000 nM
same,IC50,recombinant RSV complex,< 1000 nM
same,EC50,[2]; [3],< 1000 nM
same,EC50,RSV replicon,< 1000 nM
COc1cc(C(=O)NCC(O)(c2cc(C(C)(C)N)cc(-c3ccc(F)c(Cl)c3)n2)C(F)(F)F)ccc1OCS(N)(=O)=O (stereo not shown) [Compound 637],CC50 at 5 days,[1],10000 to 100000 nM
same,IC50,recombinant RSV complex,< 1000 nM
same,EC50,[2]; [3],1000 to 50000 nM
same,EC50,RSV replicon,< 1000 nM
CCc1ccc(C(C)(O)CNC(=O)c2ccc(OC)c(OC)c2)nc1-c1csc2c(F)cccc12 (stereo not shown) [Compound 115],CC50 at 5 days,[1],10000 to 100000 nM
same,IC50,recombinant RSV complex,< 1000 nM
same,EC50,[2]; [3],< 1000 nM
same,EC50,RSV replicon,< 1000 nM
COc1cc(C(=O)NCC(O)(c2cc3c(c(-c4ccc(F)c(Cl)c4)n2)OCC3(C)C)C2CC2)cc2cccnc12 (stereo not shown) [Compound 224],CC50 at 5 days,[1],10000 to 100000 nM
same,IC50,recombinant RSV complex,< 1000 nM
same,EC50,[2]; [3],< 1000 nM
same,EC50,RSV replicon,< 1000 nM
COc1cc(C(=O)NCC(=O)c2cc3c(c(-c4ccc(F)c(C(C)F)c4)n2)OCCC3(C)C)ccc1OCCO (stereo not shown) [Compound 298],CC50 at 5 days,[1],10000 to 100000 nM
same,IC50,recombinant RSV complex,< 1000 nM
same,EC50,[2]; [3],< 1000 nM
same,EC50,RSV replicon,< 1000 nM
COc1cc(C(=O)NCC(O)(c2cc(C(C)(C)NS(C)(=O)=O)cc(-c3ccc(F)c(Cl)c3)n2)C(F)(F)F)ccc1OC1CC1 (stereo not shown) [Compound 330],CC50 at 5 days,[1],10000 to 100000 nM
same,IC50,recombinant RSV complex,< 1000 nM
same,EC50,[2]; [4],< 1000 nM
same,EC50,RSV replicon,< 1000 nM
